pIC50: −log10 of the molar value. Marks after values point to notes of the source that are not given here.
Tests used:
D1 = D1 (Homo sapiens, UniProt P21728); assay: Dopamine receptor D1 binding; conditions: [^3H]SCH 23390, Human recombinant CHO cells, read-out: CR6086 Activity at 10µM
IL-23 release = IL-23 release from human dendritic cells; format: cell-based; conditions: Dendritic cell, PGE2-stimulated, 24 h
Procedure: PBMCs were purified using Histopaque (Sigma-Aldrich, St. Louis, MO, USA). CD14^+ cells were positively selected in a magnetic field (magnetic-activated cell sorting [MACS]; Miltenyi Biotec, Bergisch Gladbach, Germany). Purified CD14^+ cells were subsequently cultured for 7 days in differentiation medium (RPMI 1640 + 10% FBS, granulocyte-macrophage colony-stimulating factor 50 ng/ml and IL-4 100 ng/ml) and then stimulated with LPS (10 ng/ml), R848 2.5 μg/ml and PGE2 10 nM for 24 h in the presence of CR6086 (0.01–30 μM) or naproxen (1–30 μM). IL-23 release was measured by enzyme-linked immunosorbent assay (ELISA) (R&D Systems, Minneapolis, MN, USA).

IL-17 release = IL-17 release from human Th17 cells; format: cell-based; conditions: Homo sapiens; at 1 μM; 48 and 72 h
Procedure: PBMCs were purified using Histopaque. CD4^+CD45^+ naive T cells were indirectly selected in a magnetic field (MACS; Miltenyi Biotec). Purified CD4^+ cells were subsequently cultured for 7 days in differentiation medium (RPMI 1640 + FBS 10%, IL-6 30 ng/ml, transforming growth factor [TGF]-β 2.25 ng/ml, IL-23 30 ng/ml, IL-1β 20 ng/ml, anti-interferon (IFN)-γ 1 ng/ml and anti-IL-4 2.5 ng/ml). Th17 cell expansion was stimulated by addition of anti-CD3/[…]anti-CD28 beads to the medium with a cell-to-beads ratio of 1:2. Th17 cells were stimulated with IL-6 30 ng/ml, TGF-β 2.25 ng/ml, IL-23 30 ng/ml, IL-1β 20 ng/ml and PGE2 10 nM for 48 h in the presence of CR6086 (0.03–10 μM) or naproxen (1–10 μM). IL-17 release was measured by ELISA (Abcam, Cambridge, UK).

human EP4 receptor = molecular target: T1, human EP4 receptor (Homo sapiens, UniProt P35408); assay: AlphaScreen cAMP functional assay, PGE2-stimulated HEK293 membranes; format: biochemical
T1 construct: expressed in transfected cells
T1 sequence (P35408 whole entry): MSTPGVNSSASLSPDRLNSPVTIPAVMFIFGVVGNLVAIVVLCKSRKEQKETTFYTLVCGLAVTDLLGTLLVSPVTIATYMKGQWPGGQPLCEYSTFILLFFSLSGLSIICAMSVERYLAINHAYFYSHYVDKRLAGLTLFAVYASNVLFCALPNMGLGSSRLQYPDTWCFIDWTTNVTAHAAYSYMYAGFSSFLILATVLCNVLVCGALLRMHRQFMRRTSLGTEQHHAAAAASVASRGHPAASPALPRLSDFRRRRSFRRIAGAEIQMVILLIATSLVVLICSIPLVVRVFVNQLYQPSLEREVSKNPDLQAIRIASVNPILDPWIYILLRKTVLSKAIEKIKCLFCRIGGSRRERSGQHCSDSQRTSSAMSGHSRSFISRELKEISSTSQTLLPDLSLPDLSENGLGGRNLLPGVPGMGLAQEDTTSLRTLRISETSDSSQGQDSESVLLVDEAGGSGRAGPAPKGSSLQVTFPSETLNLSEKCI
Procedure: In studies of CR6086 as a functional receptor antagonist, we took advantage of the evidence that activated EP4 receptors couple with Gs proteins to stimulate adenylyl cyclase and increase cyclic adenosine monophosphate (cAMP) cellular levels. Cell membranes prepared from the HEK293 cell line were suspended in 1 ml of stimulation buffer (Hanks’ balanced salt solution 1× + BSA 0.1% + 3-isobutyl-1-methylxanthine 0.5 mM + HEPES 5 mM + MgCl2 10 mM + guanosine triphosphate 1 nM + guanosine diphosphate 10 μM + adenosine triphosphate 100 μM, pH 7.4). The AlphaScreen cAMP functional assay (PerkinElmer) was used according to the manufacturer’s instructions. Because AlphaScreen beads are light-sensitive, the cAMP assay was performed under subdued laboratory lighting, and any incubation involving the beads was carried out in the dark. The assay is based on the competition between endogenous cAMP and exogenously added biotinylated cAMP. The capture of cAMP is achieved by using a specific antibody conjugated to […]. Cell membranes were dispensed into white 384-well microplates at a final concentration of 1 μg per well. […] After 1 h of incubation, the plate was read using the EnVision platform (PerkinElmer) to determine the cAMP level (excitation 680 nm, emission 520 or 620 nm). […]

D4,4 = D4,4 (Homo sapiens, UniProt P21917); assay: Dopamine receptor D4,4 binding; conditions: [^3H]methyl-spiperone, Human recombinant CHO cells, read-out: CR6086 Activity at 10µM
Sequence of D4,4 (P21917 whole entry): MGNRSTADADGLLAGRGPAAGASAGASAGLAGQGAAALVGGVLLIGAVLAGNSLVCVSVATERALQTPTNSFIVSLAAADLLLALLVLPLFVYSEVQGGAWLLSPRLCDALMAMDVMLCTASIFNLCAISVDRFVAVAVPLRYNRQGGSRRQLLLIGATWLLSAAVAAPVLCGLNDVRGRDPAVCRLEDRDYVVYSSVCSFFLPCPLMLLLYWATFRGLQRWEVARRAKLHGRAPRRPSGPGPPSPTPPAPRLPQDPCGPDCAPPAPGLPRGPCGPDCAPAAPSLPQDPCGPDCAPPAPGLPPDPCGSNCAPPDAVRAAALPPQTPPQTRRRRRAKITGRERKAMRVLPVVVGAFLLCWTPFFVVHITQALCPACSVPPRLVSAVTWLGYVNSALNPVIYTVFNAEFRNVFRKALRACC

NK1 = NK1 (Homo sapiens, UniProt P25103); assay: Neurokinin receptor NK1 binding; conditions: [^125I]BH-SP, U-373MG cells (endogenous), read-out: CR6086 Activity at 10µM
Sequence of NK1 (P25103 whole entry): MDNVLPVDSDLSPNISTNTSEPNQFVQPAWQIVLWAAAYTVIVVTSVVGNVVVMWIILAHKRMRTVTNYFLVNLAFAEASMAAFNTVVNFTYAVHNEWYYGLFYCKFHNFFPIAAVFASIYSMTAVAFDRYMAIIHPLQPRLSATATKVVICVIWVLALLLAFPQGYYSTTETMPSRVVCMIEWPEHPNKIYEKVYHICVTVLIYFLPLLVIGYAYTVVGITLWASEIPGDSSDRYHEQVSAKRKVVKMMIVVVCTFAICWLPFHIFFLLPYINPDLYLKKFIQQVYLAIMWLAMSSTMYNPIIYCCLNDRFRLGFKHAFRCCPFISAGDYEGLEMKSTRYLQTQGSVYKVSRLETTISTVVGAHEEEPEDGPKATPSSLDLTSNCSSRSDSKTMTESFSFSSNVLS

CGRP = CGRP (Homo sapiens, UniProt O60894+Q16602); assay: CGRP receptor binding; conditions: [^125I]hCGRPα, Human recombinant CHO cells, read-out: CR6086 Activity at 10µM
Sequence of CGRP (Q16602 23-461): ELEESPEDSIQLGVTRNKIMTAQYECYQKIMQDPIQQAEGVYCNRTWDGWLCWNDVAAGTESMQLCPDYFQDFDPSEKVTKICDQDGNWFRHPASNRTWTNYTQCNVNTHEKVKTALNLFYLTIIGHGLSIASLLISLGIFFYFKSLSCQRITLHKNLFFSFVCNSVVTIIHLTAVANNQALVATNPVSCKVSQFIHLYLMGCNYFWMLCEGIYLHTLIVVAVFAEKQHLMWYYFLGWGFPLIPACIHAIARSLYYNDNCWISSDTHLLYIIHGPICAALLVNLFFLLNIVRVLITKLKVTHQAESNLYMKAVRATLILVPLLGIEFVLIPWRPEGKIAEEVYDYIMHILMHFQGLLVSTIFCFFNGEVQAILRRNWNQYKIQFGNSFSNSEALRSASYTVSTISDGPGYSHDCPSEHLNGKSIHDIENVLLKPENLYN
Sequence of CGRP (O60894 27-148): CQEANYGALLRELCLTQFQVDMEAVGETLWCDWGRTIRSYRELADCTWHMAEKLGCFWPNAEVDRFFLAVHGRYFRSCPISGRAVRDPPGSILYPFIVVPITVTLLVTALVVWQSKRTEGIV

[1] = system: arthritic mice (collagen-induced arthritis model); assay: FACS analysis of cell populations in the joint, CIA mice; format: in vivo, mouse; conditions: CR6086 60 mg/kg, naproxen 60 mg/kg, etanercept 10 mg/kg, mean ± SEM
Procedure: In a first study, mice were randomised into the following treatment groups: vehicle, 30 mg/kg CR6086, 60 mg/kg CR6086, 60 mg/kg naproxen and 10 mg/kg etanercept. Animals received the test drugs for 10 days. CR6086 and naproxen were administered orally once daily, whereas etanercept was administered intraperitoneally every other day. Animals treated with vehicle, 60 mg/kg CR6086, naproxen and etanercept were additionally analysed for the proportion of populations of Th17 cells, Th1 cells, regulatory T cells, B cells, macrophages, neutrophils and dendritic cells by fluorescence-activated cell sorting (FACS) after collection of blood, draining lymph nodes and joints.

PDGF = PDGF receptor binding; conditions: [^125I]PDGF BB, Balb/c 3T3 cells
BZD (central) = assay: Benzodiazepine receptor (central) binding; conditions: [^3H]flunitrazepam, Rat cerebral cortex

Sequence of D1 (P21728 whole entry): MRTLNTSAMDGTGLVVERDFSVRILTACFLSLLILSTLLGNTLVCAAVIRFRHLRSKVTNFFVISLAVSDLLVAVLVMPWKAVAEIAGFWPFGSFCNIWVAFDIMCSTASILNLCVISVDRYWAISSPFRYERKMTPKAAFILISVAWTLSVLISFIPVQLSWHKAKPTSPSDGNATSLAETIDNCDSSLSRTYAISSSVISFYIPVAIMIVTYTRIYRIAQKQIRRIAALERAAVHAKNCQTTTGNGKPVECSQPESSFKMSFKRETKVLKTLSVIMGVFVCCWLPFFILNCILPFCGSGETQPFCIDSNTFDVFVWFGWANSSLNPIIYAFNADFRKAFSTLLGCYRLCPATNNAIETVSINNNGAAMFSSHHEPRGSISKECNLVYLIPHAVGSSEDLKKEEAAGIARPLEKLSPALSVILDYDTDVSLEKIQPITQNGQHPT

## O=C([O-])c1ccc(C2(NC(=O)[C@H]3CC4(CCN3Cc3ccc(C(F)(F)F)cc3)CC4)CC2)cc1.[Na+] [CR6086, Sodium (R)-4-(1-(6-(4-(trifluoromethyl)benzyl)-6-azaspiro[2.5]octane-5-carboxamido)cyclopropyl)benzoate]
D1
  inhibition at 10 µM: < 20%
IL-23 release
  pIC50: 6.22
IL-17 release
  inhibition at 1 µM: 100%
Human EP4 receptor; 3 nM PGE2, HEK293 membranes, read-out: IC50 on PGE2-stimulated cAMP production
  pIC50: 7.66
Human EP4 receptor; cAMP functional assays
  functional behaviour: pure EP4 antagonist
D4,4
  inhibition at 10 µM: < 20%
NK1
  inhibition at 10 µM: < 20%
CGRP
  inhibition at 10 µM: < 20%
[1]
  B cells, Percentage of total cells: 6.65 ± 0.72%
  Dendritic cells, Percentage of total cells: 1.72 ± 0.44%
  Macrophages, Percentage of total cells: 11.14 ± 2.93^a %
  Neutrophils, Percentage of total cells: 9.98 ± 2.89^a %
  Th1, Percentage of total cells: 0.14 ± 0.03^b %
  Th17, Percentage of total cells: 0.06 ± 0.01^b %
  Treg, Percentage of total cells: 0.38 ± 0.12%
PDGF
  CR6086 Activity at 10µM: IN (IN = < 20% displacement or inhibition (all tables))
BZD (central)
  CR6086 Activity at 10µM: IN (IN = < 20% displacement or inhibition (all tables))
